From article PMC5259791 (Scientific Reports, 2017)

Assays:
PPARγ = target: T1, PPARγ (Homo sapiens, UniProt P37231); assay: SPR on immobilized PPARγ; assay type: binding
T1 sequence (P37231 195-477 isoform P37231-2 limits assumed): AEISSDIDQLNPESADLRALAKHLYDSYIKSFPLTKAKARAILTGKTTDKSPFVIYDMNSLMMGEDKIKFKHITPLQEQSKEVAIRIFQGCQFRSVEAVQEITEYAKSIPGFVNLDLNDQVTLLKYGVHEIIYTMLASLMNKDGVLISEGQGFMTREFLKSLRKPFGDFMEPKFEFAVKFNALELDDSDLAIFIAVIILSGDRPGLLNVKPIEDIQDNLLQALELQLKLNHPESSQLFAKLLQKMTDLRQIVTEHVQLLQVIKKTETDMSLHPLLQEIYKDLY
Method: ; SPR analysis was also performed using the immobilized PPARγ LBD to evaluate if this protein portion was involved in the interaction with 1; […]. Conversely, no affinity of the diterpene towards Hsp60 was observed (Fig. 2c).
To assess the potential of 1 to act as a PPARγ modulator, we investigated the structural and functional aspects of its interaction with this nuclear receptor. To define the structural features required by 1 for an efficient interaction with PPARγ, as a first step, we performed SPR analyses using some diterpenes displaying structural relationship with 1 (compounds 2–9, Fig. 1). […]. SPR analyses were carried out on a BIACORE 3000 instrument (GE-Healthcare). PPARα, PPARγ, PPARδ and HSP60 surfaces were prepared on research−grade CM5 sensor chips (GE Healthcare). Proteins (100 μg/ml in 10 mM CH3COONa, pH 5.0) were immobilized using a standard amine−coupling protocol, to obtain densities of 3–5 kRU. Testing compounds were dissolved in 100% DMSO to obtain 4 mM solutions, and then diluted in PBS containing variable amounts of DMSO, achieving a final DMSO concentration of 0.1%. […]. SPR experiments and data elaboration were carried out as reported elsewhere.

HT-29 cells = assay: HT-29 cell growth (cell counting)
Method: Data are the mean ± SD of three independent experiments performed in duplicate giving similar results. Significance is indicated as *p ≤ 0.05, **p ≤ 0.01 and ***p ≤ 0.001. (b) HT29 cells were seeded in 24-well in order to reach the density of cells/cm^2 in standard conditions (10^5 cells). […] The experiments were performed in triplicate and the data expressed as mean ± SD. Significance is indicated as **p ≤ 0.01 and ***p ≤ 0.001.

PPARδ = target: T2, PPARδ (Homo sapiens, UniProt Q03181); assay: SPR on immobilized PPARδ; assay type: binding
T2 construct: purchased Tebu-Bio
T2 sequence (Q03181 1-441): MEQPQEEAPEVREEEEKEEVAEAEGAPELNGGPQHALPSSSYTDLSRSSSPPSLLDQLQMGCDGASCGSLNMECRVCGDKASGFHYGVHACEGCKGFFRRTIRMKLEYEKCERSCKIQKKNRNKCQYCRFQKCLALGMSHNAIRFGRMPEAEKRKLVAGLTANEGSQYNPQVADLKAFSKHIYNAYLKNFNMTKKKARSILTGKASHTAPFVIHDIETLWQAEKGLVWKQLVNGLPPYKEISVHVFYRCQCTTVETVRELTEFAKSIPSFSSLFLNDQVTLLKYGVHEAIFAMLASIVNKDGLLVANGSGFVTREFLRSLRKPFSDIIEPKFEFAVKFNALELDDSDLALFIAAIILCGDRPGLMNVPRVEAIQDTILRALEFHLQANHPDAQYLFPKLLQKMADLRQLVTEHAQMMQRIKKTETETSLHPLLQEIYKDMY
Method: In order to evaluate if 1 acts as a selective ligand of PPARγ, SPR analyses were also carried out on immobilized PPARα and PPARδ, two proteins structurally and functionally related to PPARγ[23][24].
(§1) SPR analyses were carried out on a BIACORE 3000 instrument (GE-Healthcare). PPARα, PPARγ, PPARδ and HSP60 surfaces were prepared on research−grade CM5 sensor chips (GE Healthcare). Proteins (100 μg/ml in 10 mM CH3COONa, pH 5.0) were immobilized using a standard amine−coupling protocol, to obtain densities of 3–5 kRU. Testing compounds were dissolved in 100% DMSO to obtain 4 mM solutions, and then diluted in PBS containing variable amounts of DMSO, achieving a final DMSO concentration of 0.1%. For each molecule a five−point concentration series (25 nM, 65 nM, 150 nM, 400 nM, 1 μM) was set up. SPR experiments and data elaboration were carried out as reported elsewhere.

PPARγ LBD = target: T3, PPARγ LBD (Homo sapiens, UniProt P37231); assay: SPR on immobilized PPARγ LBD; assay type: binding
T3 construct: Recombinant human PPARγ-LBD, consisting of the region 195–477 of PPARγ; purchased Bertin-Pharma
T3 sequence (P37231 195-477 isoform P37231-2): T1 sequence (P37231 195-477 isoform P37231-2 limits assumed)
Method: Conversely, no affinity of the diterpene towards Hsp60 was observed (Fig. 2c).
as §1

C=C1C(=O)C23CCC4C(C(=O)OC)CC(O)CC4(C)C2CCC1C3 (stereo not shown) [Compound 1, 15-ketoatractyligenin methyl ester]
dissociation of 1/PPARγ complex (PPARγ; SPR, compared with 1/PPARα complex): required longer times and was incomplete
Kd (PPARγ; SPR, immobilized PPARγ): 0.0258 ± 0.0055 µM
interaction with PPARγ pre-incubated with 1 (PPARγ; protein immobilized after 2 h incubation with 5-fold molar excess of 1): did not interact
inhibition of cell growth (HT-29 cells; 1, 5 and 10 μM for 24 and 48 h): more pronounced dosage-dependent inhibition of cell growth than Rosiglitazone
cell counts after GW9662 pre-treatment versus compound alone (HT-29 cells; GW9662 10 μM 6 h, then compound 10 μM for 24 and 48 h): increased cell counts
binding to PPARδ (PPARδ): no significant binding
Kd (PPARγ LBD): 0.0392 ± 0.0039 µM
